Here are results for 19 compounds from PubChem BioAssay AID330 (DTP/NCI, 2004).

“And” between values parts separate entries of the source, which are not always exact repeats. Identical values can stand only once. Inconclusive results and toxic doses are left out.

The experiment has as its system P388 leukemia ip, CD2F1 mice, survival T/C. Description: NCI In Vivo Anticancer Drug Screen. Data for tumor model P388 Leukemia (intraperitoneal) in CD2F1 (CDF1) mice. The settings on record: endpoint: median survival time, higher = longer survival. In short, it runs like this:
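Mice carrying the transplanted tumor received test compound or vehicle. Survival was recorded in each group, and the value is the treated-group measurement divided by that of the vehicle-treated control group.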

Where [1] appears, read: dose: 6.25 mg/kg/injection, schedule: Q01DX005 (ip), vehicle: saline with Tween-80.
Setting [2] is: dose: 12.5 mg/kg/injection, schedule: Q01DX005 (ip), vehicle: saline with Tween-80.
[3] abbreviates: dose: 25.0 mg/kg/injection, schedule: Q01DX005 (ip), vehicle: saline with Tween-80.
Setting [4] is: dose: 100.0 mg/kg/injection, schedule: Q01DX005 (ip), vehicle: saline with Tween-80.
Where [5] appears, read: dose: 200.0 mg/kg/injection, schedule: Q01DX005 (ip), vehicle: saline with Tween-80.
[6] abbreviates: dose: 50.0 mg/kg/injection, schedule: Q01DX009 (ip), vehicle: saline with Tween-80.
Setting [7] is: dose: 100.0 mg/kg/injection, schedule: Q01DX009 (ip), vehicle: saline with Tween-80.
[8] abbreviates: dose: 200.0 mg/kg/injection, schedule: Q01DX009 (ip), vehicle: saline with Tween-80.
Where [9] appears, read: dose: 50.0 mg/kg/injection, schedule: Q01DX005 (ip), vehicle: saline with Tween-80.
Setting [10] is: dose: 50.0 mg/kg/injection, schedule: Q04DX003 (ip), vehicle: saline with Tween-80.
Where [11] appears, read: dose: 100.0 mg/kg/injection, schedule: Q04DX003 (ip), vehicle: saline with Tween-80.
Setting [12] is: dose: 100.0 mg/kg/injection, schedule: Q01DX009 (ip), vehicle: saline.
The mark [13] stands for this setting: dose: 200.0 mg/kg/injection, schedule: Q01DX009 (ip), vehicle: saline.

On to `O=C1c2cccc3cc([N+](=O)[O-])cc(c23)C(=O)N1Cc1cccnc1`, for which the T/C was 100 % of control under setting [1]; 96 % of control under setting [2]; 92 % of control under setting [3]; 92 % of control under setting [4]; 101 % of control under setting [5].
On to `N=Nc1c(OC(=O)Nc2cccc(Cl)c2)[nH]c2ccccc12`, for which the T/C by setting is: under setting [6], 94 % of control; under setting [7], 90 % of control; under setting [8], 93 % of control.
As to `OCCN1C(c2ccccc2)=CN2C=CSC21` (centres undefined), the T/C (dose: 100.0 mg/kg/injection, schedule: Q04DX002 (ip), vehicle: saline with Tween-80) was 97 % of control; the T/C (dose: 200.0 mg/kg/injection, schedule: Q04DX002 (ip), vehicle: saline with Tween-80) is 94 % of control; the T/C (dose: 400.0 mg/kg/injection, schedule: Q04DX002 (ip), vehicle: saline with Tween-80) is 97 % of control.
Take `O=C(Nc1cccc(Cl)c1Cl)OCCCc1ccncc1`: the T/C by setting is: under setting [6], 100 % of control; under setting [7], 100 % of control.
`CC(=O)CC1(O)CCCC1`: the T/C is 98 % of control (dose: 60.0 mg/kg/injection, schedule: Q01DX005 (ip), vehicle: saline); 105 % of control (dose: 120.0 mg/kg/injection, schedule: Q01DX005 (ip), vehicle: saline); 100 % of control (dose: 240.0 mg/kg/injection, schedule: Q01DX005 (ip), vehicle: saline).
As for `C/C(=N/NC(=S)NCc1ccccc1)c1ncccn1`, the T/C is 100 % of control under setting [2]; 100 % of control under setting [3]; 105 % of control and 98 % of control under setting [9].
Turning to `CC1CN=C(c2ccc(NC(=O)NCCCCCCCCCCCCNC(=O)Nc3ccc(C4=NCC(C)N4)cc3)cc2)N1` (centres undefined), the T/C is 103 % of control under setting [1]; 103 % of control under setting [2]; 108 % of control under setting [3]; 106 % of control under setting [9]; 116 % of control under setting [4].
For the compound `N/C(=N\C(O)C(Cl)(Cl)Cl)SCNC(=O)NCS/C(N)=N/C(O)C(Cl)(Cl)Cl` (centres undefined), the T/C under setting [9] is 105 % of control, the T/C under setting [4] is 100 % of control and the T/C under setting [5] is 95 % of control.
As to `C[N+](C)(CC(=O)Nc1ccc(Cl)c(Cl)c1)CC(=O)c1ccc(Cl)c(Cl)c1`, the T/C was 100 % of control (dose: 25.0 mg/kg/injection, schedule: Q04DX003 (ip), vehicle: saline with Tween-80); 100 % of control under setting [10]; 90 % of control under setting [11].
`CC(=O)Nn1c(N)nc2cc(C)ccc21`: the T/C reads like this: (dose: 200.0 mg/kg/injection, schedule: Q01DX001 (ip), vehicle: saline) 98 % of control; (dose: 400.0 mg/kg/injection, schedule: Q01DX001 (ip), vehicle: saline) 93 % of control.
On to `CCCCCCC1=NC(C)(C)CO1`, for which the T/C by setting is: under setting [6], 100 % of control; under setting [10], 100 % of control; under setting [7], 104 % of control; under setting [11], 100 % of control; under setting [8], 100 % of control; (dose: 200.0 mg/kg/injection, schedule: Q04DX003 (ip), vehicle: saline with Tween-80) 109 % of control.
For `CC1(C)CC(=O)C(C(c2cccc([N+](=O)[O-])c2)C2C(=O)CC(C)(C)CC2=O)C(=O)C1`, the T/C was 96 % of control (dose: 50.0 mg/kg/injection, schedule: Q01DX005 (ip), vehicle: Klucel (hydroxypropylcellulose) (HPC)); 98 % of control (dose: 100.0 mg/kg/injection, schedule: Q01DX005 (ip), vehicle: Klucel (hydroxypropylcellulose) (HPC)); 102 % of control (dose: 200.0 mg/kg/injection, schedule: Q01DX005 (ip), vehicle: Klucel (hydroxypropylcellulose) (HPC)).
With `COc1cccc2c1C(=O)c1c(O)c3c(c(O)c1C2=O)C[C@@](O)(C(=O)CO)CC3OC1CC(O)C(O)C(C)O1` (some centres undefined), the T/C by setting is: (dose: 6.25 mg/kg/injection, schedule: Q04DX003 (ip), vehicle: saline) 122 % of control; (dose: 12.5 mg/kg/injection, schedule: Q04DX003 (ip), vehicle: saline) 165 % of control; (dose: 25.0 mg/kg/injection, schedule: Q04DX003 (ip), vehicle: saline) 183 % of control; (dose: 50.0 mg/kg/injection, schedule: Q04DX003 (ip), vehicle: saline) 209 % of control.
`C=C(C)C(=O)OC1CC2(C)OC2CCC2(C)OC2C2OC(=O)C(=C)C12` (centres undefined): the T/C by setting is: (dose: 10.0 mg/kg/injection, schedule: Q01DX005 (ip), vehicle: Klucel (hydroxypropylcellulose) (HPC)) 108 % of control; (dose: 20.0 mg/kg/injection, schedule: Q01DX005 (ip), vehicle: Klucel (hydroxypropylcellulose) (HPC)) 106 % of control; (dose: 40.0 mg/kg/injection, schedule: Q01DX005 (ip), vehicle: Klucel (hydroxypropylcellulose) (HPC)) 100 % of control.
In the case of `CN(C)CCOc1ccc2c(c1)CCC2=O`, the T/C (dose: 50.0 mg/kg/injection, schedule: Q01DX009 (ip), vehicle: saline) is 108 % of control; the T/C under setting [12] is 118 % of control; the T/C under setting [13] is 108 % of control.
For `C=C1[C@@H](OC(C)=O)C[C@@H]2C[C@]3(C)C(OC(C)=O)CC(C)(C)[C@@H]3C12O` (some centres undefined), the T/C (dose: 1.75 mg/kg/injection, schedule: Q01DX005 (ip), vehicle: saline) was 98 % of control; the T/C (dose: 3.5 mg/kg/injection, schedule: Q01DX005 (ip), vehicle: saline) is 100 % of control; the T/C (dose: 7.0 mg/kg/injection, schedule: Q01DX005 (ip), vehicle: saline) is 97 % of control.
As for `CN(C)c1ccc(C(C#N)C(C#N)c2ccccc2)cc1` (centres undefined), the T/C was 94 % of control (dose: 6.25 mg/kg/injection, schedule: Q01DX009 (ip), vehicle: saline with Tween-80); 94 % of control (dose: 12.5 mg/kg/injection, schedule: Q01DX009 (ip), vehicle: saline with Tween-80); 103 % of control (dose: 25.0 mg/kg/injection, schedule: Q01DX009 (ip), vehicle: saline with Tween-80); 100 % of control under setting [6].
On to `COc1ccc(-c2coc3c4c(c(CC=C(C)C)c(OC)c3c2=O)OC(C)(C)C=C4)cc1OC`, for which the T/C runs as follows: under setting [2], 102 % of control; under setting [3], 100 % of control; under setting [9], 98 % of control and 91 % of control.
Consider `C#CCN(C)CCO`, for which the T/C reads like this: under setting [12], 111 % of control; under setting [13], 111 % of control; (dose: 400.0 mg/kg/injection, schedule: Q01DX009 (ip), vehicle: saline) 116 % of control.
